Columns and labels:
GST-FAK-NT2 and IGF-1Rβ = molecular target: T1, GST-FAK-NT2 and IGF-1Rβ (Homo sapiens, UniProt Q05397); assay: Pull-down assay with purified GST-FAK-NT2 and IGF-1Rβ; settings: average IC50, pulldown; read-out: IC50, decrease in binding between purified GST-FAK-NT2 and IGF-1Rβ
T1 construct: host or cells: E. coli BL21 (DE3) for GST-FAK-NT2
Excerpt: Computational Docking The crystal structures of the N-terminal domain of FAK (PDB code 2AL6) (22) and the kinase domain of IGF-1R(PDB 1P40A) (23) were utilized for in silico molecular modeling of their interaction as previously described. The three-dimensional coordinates of compound NSC344553 (INT2-31), obtained from the database of the National Cancer Institute, Developmental Therapeutics Program (NCI/DTP), were docked onto the predicted interface of the amino-terminus of FAK (amino acids 127-243) with the intracytoplasmic portion of IGF-1R (21). […] 100 orientations were created for NSC344553 in the target site and were scored using the computer program grid-based scoring function. […] The intermolecular energies for all configurations of NSC 344553 in binding to FAK-NT2 were calculated as the sum of electrostatic and van der Waals energies. These energy terms were evaluated as correlation functions, which were computed efficiently with Fast Fourier Transforms. […] Bound proteins were boiled in 6× Laemmli buffer and analyzed by SDS-PAGE and Western blotting. […] The intensity of the bands in the western blots was measured with scion image analysis software program. […]

[1] = system: Miapaca-2 orthotopic xenografts; assay: Orthotopic pancreatic xenograft, Miapaca-2; assay type: in vivo, mice
Excerpt: For the orthotopic model of pancreatic cancer, the University of Florida IACUC approved the following protocol (IACUC Study #2000801506). The pancreatic cancer cell lines, Mia paca-2 and Panc-1 cells were stably transfected using luciferase-RFP (red fluorescent protein) reporter gene for in vivo imaging of the xenografts. Following expansion and sorting of RFP positive cells, cells were expanded in culture and 5×10^6 tumor cells were implanted into the pancreas of 20 mice. For intra-pancreatic implantation of cells, mice were anesthetized with Isoflurane using the ACS provided and maintained rodent anesthesia machine. Under sterille surgical conditions, via 1.0 cm incision of the skin, abdominal wall and peritonium, the spleen was retracted and cells were injected in […] into the tail of the pancreas using a 29-gauge needle. The abdominal wall and peritoneum was sutured using 5.0 absorbable surgical sutures and the skin was closed with medical glue (dermabond). Postoperative analgesia was 0.05 mg/kg of buprenorphine subcutaneously per 8-12 hours postoperatively.
Mice were hand restrained prior to intraperitoneal injections. Mice were euthanized 6 weeks after tumor innoculation and tumor and tissue collected. As described below, mice were imaged weekly with the IVIS lumina imager and tumor size was estimated by the bioluminescent signal. […]

T1 sequence (Q05397 127-243): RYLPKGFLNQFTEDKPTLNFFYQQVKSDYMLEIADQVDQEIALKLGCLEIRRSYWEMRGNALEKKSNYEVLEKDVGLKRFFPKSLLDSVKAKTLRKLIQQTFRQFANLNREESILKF

CSc1ncnc2c1ccn2C1O[C@H](COP(=O)(O)O)[C@@H](O)[C@H]1O (stereo partly drawn) [INT2-31, 4-(Methylthio)-7-(5-O-phosphono-D-ribofuranosyl)-{7H-Pyrrolo[2,3-d]pyrimidine}]
IC50 (GST-FAK-NT2 and IGF-1Rβ): 3.96 µM
growth of the orthotopic pancreatic xenografts ([1]; Miapaca2, daily intraperitoneal 50 mg/kg, 21 days): sufficiently reduced the growth
side effects as measured by body weights and appearances of the animals ([1]; both orthotopic models): without any significant side effects
